Assays:
porcine RWM = test: Ex-vivo porcine RWM device permeability measurement; format: in vitro ADME; settings: Dex ~400 μg/ml
[1] = humans; after intratympanic DSP 0.4-1.8 ml of 4 mg/ml; cited from earlier work

time for passage through the porcine RWM (porcine RWM): < 0.5 h
Structure (SMILES): C[C@@H]1C[C@H]2[C@@H]3CCC4=CC(=O)C=C[C@]4(C)[C@@]3(F)[C@@H](O)C[C@]2(C)[C@@]1(O)C(=O)CO [Dex, dexamethasone]
dexamethasone concentration in perilymph [1]: about 1.4 μg/

Source: patent publication US20240310365A1, “DEVICE FOR EVALUATING INNER EAR DRUG DELIVERY” (North Carolina State University, priority 2023, published 2024)
